Measured values published in patent US20230357241A1, “1H-PYRROLO[2,3-C]PYRIDINE COMPOUNDS AND APPLICATION THEREOF” (MEDSHINE DISCOVERY INC., priority 2020, published 2023).
Counter-ions that a name gives are not always drawn. Values belong to the compound of their own block, whether it stands above or below them.

Columns and labels:
CSF-1R = CSF-1R (Homo sapiens (Human), UniProt P07333); assay: In vitro enzymatic inhibitory activity, CSF-1R kinase (33P-ATP filter-binding); assay type: biochemical; conditions: CSF-1R 2.5 nM, 2 h room temperature
Chain of CSF-1R (P07333 20-972): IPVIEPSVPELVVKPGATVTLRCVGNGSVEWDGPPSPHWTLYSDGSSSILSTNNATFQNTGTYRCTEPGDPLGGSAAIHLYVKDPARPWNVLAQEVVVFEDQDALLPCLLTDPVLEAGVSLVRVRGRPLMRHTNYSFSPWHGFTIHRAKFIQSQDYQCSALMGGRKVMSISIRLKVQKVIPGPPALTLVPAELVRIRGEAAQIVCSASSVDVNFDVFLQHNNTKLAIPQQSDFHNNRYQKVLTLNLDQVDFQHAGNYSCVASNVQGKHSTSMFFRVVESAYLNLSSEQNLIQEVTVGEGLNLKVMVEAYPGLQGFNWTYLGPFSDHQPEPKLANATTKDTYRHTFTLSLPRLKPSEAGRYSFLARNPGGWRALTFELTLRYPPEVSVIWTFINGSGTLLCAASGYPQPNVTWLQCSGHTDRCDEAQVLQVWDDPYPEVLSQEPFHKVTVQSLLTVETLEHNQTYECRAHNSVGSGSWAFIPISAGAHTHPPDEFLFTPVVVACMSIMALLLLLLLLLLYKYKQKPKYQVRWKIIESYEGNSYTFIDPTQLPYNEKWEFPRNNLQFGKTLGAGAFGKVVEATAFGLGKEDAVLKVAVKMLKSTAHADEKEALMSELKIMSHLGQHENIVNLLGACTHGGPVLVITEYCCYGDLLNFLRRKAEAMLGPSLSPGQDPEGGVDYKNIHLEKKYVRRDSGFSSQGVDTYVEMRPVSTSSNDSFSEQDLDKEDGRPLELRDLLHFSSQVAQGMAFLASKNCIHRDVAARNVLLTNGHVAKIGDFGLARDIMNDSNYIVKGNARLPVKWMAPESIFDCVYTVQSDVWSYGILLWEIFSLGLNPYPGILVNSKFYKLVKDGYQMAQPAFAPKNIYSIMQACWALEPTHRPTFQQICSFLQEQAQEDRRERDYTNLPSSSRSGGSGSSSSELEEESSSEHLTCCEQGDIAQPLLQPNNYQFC
Description: Basic reaction buffer: 20 mM hydroxyethylpiperazine ethane sulfonic acid (pH 7.5), 10 mM magnesium chloride, 1 mM EGTA, 0.02% Brij35, 0.02 mg/mL bovine serum albumin, 0.1 mM
Na3VO4, 2 mM DTT, 1% DMSO
Necessary cofactors were separately added to the CSF-1R kinase reaction.
The test compounds were prepared into solutions of specified concentrations in 100% DMSO, and the solutions were serially diluted in DMSO using the Integra Viaflo Assist.
1. A fresh medium preparation reaction buffer was prepared;
2. All necessary cofactors were added to the reaction buffer described above;
3. The kinase was added into the medium solution and the mixture was shaked gently;
4. Solutions of the compounds in DMSO were added to the kinase reaction mixture using an acoustic technique (Echo550; in nanoliter range), and the system was incubated at room temperature for 20 min;
5. ^33P-ATP (specific activity: 10 μCi/μL) was added to the reaction mixture to initiate the reaction;
6. The mixture was incubated for 2 h at room temperature;
7. The kinase activity was detected by a filter-binding method;
8. The kinase activity IC50 values and the curves were obtained by comparison with the other kinases and the vehicle (DMSO) group using Prism (GraphPad software).

MDR1-MDCK = assay: Permeability study (MDR1-MDCK), bi-directional transport; assay type: in vitro ADME; conditions: conclusion in words
CYP1A2 = CYP1A2 (Homo sapiens (Human), UniProt P05177); assay: Cytochrome enzyme inhibition study, CYP1A2; assay type: in vitro ADME; conditions: human liver microsomes, mixed probe substrate; read-out: CYP inhibition (IC50, μM) 1A2
Chain of CYP1A2 (P05177 whole entry): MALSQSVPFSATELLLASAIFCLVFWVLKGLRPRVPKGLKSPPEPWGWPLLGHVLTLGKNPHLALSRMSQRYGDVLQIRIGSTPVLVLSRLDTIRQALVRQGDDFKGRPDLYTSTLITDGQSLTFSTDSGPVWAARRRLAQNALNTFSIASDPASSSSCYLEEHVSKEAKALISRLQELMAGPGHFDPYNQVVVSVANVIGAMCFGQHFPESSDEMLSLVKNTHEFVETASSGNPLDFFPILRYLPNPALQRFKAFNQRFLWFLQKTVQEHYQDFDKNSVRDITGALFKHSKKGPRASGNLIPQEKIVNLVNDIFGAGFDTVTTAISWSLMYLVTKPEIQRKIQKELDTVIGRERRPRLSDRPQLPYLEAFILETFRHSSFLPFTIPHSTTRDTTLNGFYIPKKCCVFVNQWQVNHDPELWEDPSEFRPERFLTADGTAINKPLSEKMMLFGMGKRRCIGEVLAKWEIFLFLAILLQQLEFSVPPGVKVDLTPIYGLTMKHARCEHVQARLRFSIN
Description: (§1) A mixed probe substrate of CYP isoenzymes were used to evaluate the inhibitory effect of test compounds on human liver microsomal cytochrome P450 isoenzymes (CYP1A2, CYP2C9, CYP2C19, CYP2D6 and CYP3A4). The test compounds were prepared into 10 mM stock solutions with DMSO. A 178 μL solution of human liver microsome and substrate mixture was added to the non-inhibitor control (NIC) and test compound wells of the reaction plate and the reaction was then placed on ice. 2 μL of blank solvent and test compound working solution were taken from the dilution plate, and added to the reaction plate (at final concentrations of 0.05-50 μM). The reaction plate was prewarmed in a 37±0.2° C. water bath for 10 min. 20 μL of the cofactor solution was taken by a liquid treatment workstation and added into the reaction plate to initiate the reaction. After 10 min, 400 μL of terminating solution was added to the reaction plate to terminate the reaction, and the reaction plate was incubated on ice for 5 min. […] The peak areas of the substrate and the product were detected by liquid chromatography-mass spectrometer (LC/MS/MS). […] The peak area ratio of the metabolite generated by the probe substrate to the internal standard was determined by liquid chromatography-mass spectrometer (LC-MS/MS). […] IC50 values were calculated by a three-parameter or four-parameter sigmoidal logarithmic equation. […]

CYP2C9 = CYP2C9 (Homo sapiens (Human), UniProt P11712); assay: Cytochrome enzyme inhibition study, CYP2C9; assay type: in vitro ADME; conditions: human liver microsomes, mixed probe substrate; read-out: CYP inhibition (IC50, μM) 2C9
Chain of CYP2C9 (P11712 whole entry): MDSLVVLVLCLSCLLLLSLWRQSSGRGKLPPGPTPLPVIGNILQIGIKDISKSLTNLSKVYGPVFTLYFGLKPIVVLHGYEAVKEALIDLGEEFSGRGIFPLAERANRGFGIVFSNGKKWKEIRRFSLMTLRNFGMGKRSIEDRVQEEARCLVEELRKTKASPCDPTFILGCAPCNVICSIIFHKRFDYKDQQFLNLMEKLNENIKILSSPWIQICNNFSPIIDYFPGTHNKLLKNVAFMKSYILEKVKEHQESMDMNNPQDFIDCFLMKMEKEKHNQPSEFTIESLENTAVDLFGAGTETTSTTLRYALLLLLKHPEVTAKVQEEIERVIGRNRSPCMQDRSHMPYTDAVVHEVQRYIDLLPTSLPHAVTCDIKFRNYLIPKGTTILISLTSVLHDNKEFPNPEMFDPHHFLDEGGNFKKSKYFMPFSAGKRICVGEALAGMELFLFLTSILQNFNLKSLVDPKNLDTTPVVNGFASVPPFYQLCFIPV
Description: as §1

CYP2C19 = CYP2C19 (Homo sapiens (Human), UniProt P33261); assay: Cytochrome enzyme inhibition study, CYP2C19; assay type: in vitro ADME; conditions: human liver microsomes, mixed probe substrate; read-out: CYP inhibition (IC50, μM) 2C19
Chain of CYP2C19 (P33261 whole entry): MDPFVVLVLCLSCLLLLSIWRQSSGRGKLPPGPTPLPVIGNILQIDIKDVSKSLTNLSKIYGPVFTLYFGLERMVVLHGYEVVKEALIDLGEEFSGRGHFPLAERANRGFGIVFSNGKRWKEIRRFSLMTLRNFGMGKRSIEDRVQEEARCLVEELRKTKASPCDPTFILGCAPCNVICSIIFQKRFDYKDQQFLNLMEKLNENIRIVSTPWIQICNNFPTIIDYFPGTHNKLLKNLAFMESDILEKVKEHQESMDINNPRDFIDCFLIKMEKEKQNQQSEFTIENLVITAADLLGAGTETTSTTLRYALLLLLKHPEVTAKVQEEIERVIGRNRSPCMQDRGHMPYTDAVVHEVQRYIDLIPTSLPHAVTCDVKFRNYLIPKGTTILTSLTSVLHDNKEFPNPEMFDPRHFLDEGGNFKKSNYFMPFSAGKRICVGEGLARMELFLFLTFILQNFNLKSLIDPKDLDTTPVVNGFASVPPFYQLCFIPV
Description: as §1

CYP2D6 = CYP2D6 (Homo sapiens (Human), UniProt P10635); assay: Cytochrome enzyme inhibition study, CYP2D6; assay type: in vitro ADME; conditions: human liver microsomes, mixed probe substrate; read-out: CYP inhibition (IC50, μM) 2D6
Chain of CYP2D6 (P10635 whole entry): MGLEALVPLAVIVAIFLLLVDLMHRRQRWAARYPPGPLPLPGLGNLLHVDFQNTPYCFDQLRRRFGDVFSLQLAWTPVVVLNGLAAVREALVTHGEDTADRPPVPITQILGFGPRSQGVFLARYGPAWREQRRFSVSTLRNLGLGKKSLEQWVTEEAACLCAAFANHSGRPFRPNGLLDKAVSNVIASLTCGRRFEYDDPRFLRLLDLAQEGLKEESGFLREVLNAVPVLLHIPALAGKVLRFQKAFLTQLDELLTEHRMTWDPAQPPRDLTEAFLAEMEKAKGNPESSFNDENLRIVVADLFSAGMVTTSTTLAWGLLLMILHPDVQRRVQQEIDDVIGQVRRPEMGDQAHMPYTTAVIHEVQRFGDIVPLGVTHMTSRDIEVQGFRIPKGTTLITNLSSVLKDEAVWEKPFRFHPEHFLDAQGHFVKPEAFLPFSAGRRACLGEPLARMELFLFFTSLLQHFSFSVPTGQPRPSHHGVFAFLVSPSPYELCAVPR
Description: as §1

CYP3A4 = CYP3A4 (Homo sapiens (Human), UniProt P08684); assay: Cytochrome enzyme inhibition study, CYP3A4; assay type: in vitro ADME; conditions: human liver microsomes, mixed probe substrate; read-out: CYP inhibition (IC50, μM) 3A4
Chain of CYP3A4 (P08684 whole entry): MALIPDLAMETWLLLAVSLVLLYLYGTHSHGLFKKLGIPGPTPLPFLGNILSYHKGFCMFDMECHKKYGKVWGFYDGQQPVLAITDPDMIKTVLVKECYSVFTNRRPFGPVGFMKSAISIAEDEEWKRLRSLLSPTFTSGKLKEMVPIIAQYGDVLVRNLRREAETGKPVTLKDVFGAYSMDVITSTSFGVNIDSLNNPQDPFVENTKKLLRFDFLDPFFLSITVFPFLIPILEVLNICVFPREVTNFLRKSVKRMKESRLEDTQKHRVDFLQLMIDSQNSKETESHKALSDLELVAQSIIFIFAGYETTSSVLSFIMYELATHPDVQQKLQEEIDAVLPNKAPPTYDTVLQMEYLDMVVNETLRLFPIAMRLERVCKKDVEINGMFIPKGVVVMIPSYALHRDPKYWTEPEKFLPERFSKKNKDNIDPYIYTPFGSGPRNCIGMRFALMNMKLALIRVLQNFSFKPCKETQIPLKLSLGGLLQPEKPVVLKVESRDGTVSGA
Description: as §1

[1] = Pharmacokinetic study in mice; assay type: in vivo, male C57BL/6J mice; conditions: male, C57BL/6J, plasma, mouse
Description: (§2) This study was intended to explore the pharmacokinetics of the test compound in the plasma of male C57BL/6J mice and SD rats after intravenous and oral administrations.
(§3) The animals were randomized into two groups of 3 male animals. The compounds were formulated as designated (vehicle: 0.5% MC), i.e., clear solutions for intravenous injection and clear or homogeneous suspensions for oral formulations.
(§4) Animal whole blood samples were collected by jugular vein puncture or from saphenous vein at 5 min, 15 min and 30 min and 1 h, 2 h, 4 h, 6 h and 8 h post-dose. The whole blood samples were added to centrifuge tubes containing anticoagulant and centrifuged at 4° C., 3000 g for 15 min. The plasma supernatant was taken and quickly frozen on dry ice and stored in a freezer at −70±10° C. before LC-MS/MS analysis.
(§5) Plasma drug concentration data for compounds were processed in a non-compartmental model using WinNonlin™ Version 6.3.0 (Pharsight, Mountain View, CA) pharmacokinetic software. Peak concentration (Cmax) and time to peak (Tmax) and time of the last quantifiable concentration were directly obtained from the plasma concentration-time curve.
(§6) The following pharmacokinetic parameters were calculated using the log-linear trapezoidal method: plasma clearance (CL), volume of distribution (Vd), elimination phase half-life (T1/2), mean retention time of the compound from point 0 to the last time point (MRT0-last), mean retention time of the compound from point 0 to infinite (MRT0-inf), area under the time-plasma concentration curve from point 0 to the last time point (AUC0-last), area under the time-plasma concentration curve from point 0 to infinite (AUC0-inf) and bioavailability (F).

[2] = Pharmacokinetic study in rats; assay type: in vivo; conditions: male, SD, plasma, rat
Description: as §2, §3, §4, §5, §6

[3] = test system: Ba/F3-TEL-CSF1R cell in situ graft tumor; assay: In vivo pharmacodynamic study, Ba/F3-TEL-CSF1R cell in situ graft tumor model (splenomegaly); set-up: species or system nu/nu mice; conditions: for efficacy in TEL-CSF1R-BaF3 cell splenomegaly assay: p.o., QD
Description: The in vivo efficacy of compound 1 hydrochloride on Ba/F3-TEL-CSF1R cell in situ graft tumor model was evaluated.
• Cell culture: Ba/F3-TEL-CSF1R cells were cultured in 1640 medium (Biological Industries)+10% fetal bovine serum (BI)+1% dual antibiotic solution (Penicilin Streptomycin Solution, Coring, USA) at 37° C. at 5% CO2 and passaged twice a week. When the saturation reached 80%-90% and met the requirement, the cells were collected, counted and grafted. • Animals: 28 nu/nu mice, female, aged 6-8 weeks, 18-22 g, supplied by Beijing Vital River Laboratory Animal Technology Co., Ltd. • Tumor grafting: 0.2 mL of Ba/F3-TEL-CSF1R cell suspension (2×10^6 cells) was grafted into each mouse through tail vein injection, and the mice were randomized by weight on day 10. • Grouping and dosing regimens
The animals were housed in SPF animal rooms in independent cages with air supply, and each cage contained no more than 5 animals. • ? Temperature: 20-26° C. • ? Humidity: 35%-75% • ? Illumination: 12 h/12 h light/darkness cycle • ? Corn core padding, changed once a week • ? […] Labeling: ear cutting. • Grouping: The subcutaneous tumor-bearing state was observed every day after grafting; the body weight and tumor volume were measured before grouping, and the mice were randomized according to the data. • Observation: The drafting and any modification of the protocol were approved by the Ethics
Committee of Laboratory Animal Welfare of Precision Preceding Do Co., Ltd. (Hefei, China). Animals were monitored daily for health and mortality, including, for example, tumor growth, mobility, diet, weight, eye, hair and other abnormal behaviors, appearance, signs or other abnormalities. The numbers of deaths and adverse events in the groups were recorded based on the number of animals. • Parameters: The body weights were measured and animal survival rate observed daily; at the end of the study (4 h after the last dose), the mice were euthanized and the spleen and liver were collected, weighed and photographed. • The results are shown in FIG. 1.

IC50 (CSF-1R): 34 nM
SMILES: CNC(=O)c1nccc2c(-c3cnc(Nc4ccc(OC(C)C)cc4)cc3C)c[nH]c12 [Compound 3 hydrochloride]

IC50 (CSF-1R): 30 nM
SMILES: CNC(=O)c1nccc2c(-c3cnc(Nc4ccc(C)nc4)cc3C)c[nH]c12 [Compound 6 hydrochloride]

IC50 (CSF-1R): 26 nM
SMILES: CNC(=O)c1nccc2c(-c3cnc(Nc4ccc(OC)nc4)cc3C)c[nH]c12 [Compound 7 hydrochloride]

IC50 (CSF-1R): 10 nM
SMILES: CNC(=O)c1nccc2c(-c3cnc(Nc4ccc(OC)cc4)cc3C)c[nH]c12 [Compound 8 hydrochloride]

Further lines, the compound ahead of its results:

SMILES: CNC(=O)c1nccc2c(-c3cnc(Nc4ccc(OC5CC5)nc4)cc3C)c[nH]c12 [Compound 1 hydrochloride]
IC50 (CSF-1R): 1.13 nM | permeability compared with PLX-3397 (MDR1-MDCK): higher than that of PLX-3397 | IC50 (CYP1A2): > 50 µM | IC50 (CYP2C9): 11.6 µM | IC50 (CYP2C19): 21 µM | IC50 (CYP2D6): > 50 µM | IC50 (CYP3A4): 28 µM | AUC(0-t) ([1]; 1 mg/kg, IV, 1 mpk): 168 µM·h | Vd ([1]; 1 mg/kg, IV, 1 mpk): 0.15 L/kg | clearance ([1]; 1 mg/kg, IV, 1 mpk): 0.2 mL/min/kg | half-life ([1]; 1 mg/kg, IV, 1 mpk): 517 min | AUC(0-t) ([1]; 10 mg/kg, PO, 10 mpk): 1650 µM·h | Cmax ([1]; 10 mg/kg, PO, 10 mpk): 117 µM | Tmax ([1]; 10 mg/kg, PO, 10 mpk): 3 h | bioavailability ([1]; 10 mg/kg, PO, 10 mpk): 98% | AUC(0-t) ([2]; 1 mg/kg, IV, 1 mpk): 66 µM·h | Vd ([2]; 1 mg/kg, IV, 1 mpk): 0.2 L/kg | clearance ([2]; 1 mg/kg, IV, 1 mpk): 0.61 mL/min/kg | half-life ([2]; 1 mg/kg, IV, 1 mpk): 204 min | AUC(0-t) ([2]; 3 mg/kg, PO, 3 mpk): 249 µM·h | Cmax ([2]; 3 mg/kg, PO, 3 mpk): 27.4 µM | Tmax ([2]; 3 mg/kg, PO, 3 mpk): 2 h | bioavailability ([2]; 3 mg/kg, PO, 3 mpk): 129% | efficacy in TEL-CSF1R-BaF3 cell splenomegaly assay ([3]; 1 mpk, comparable to PLX-3397 (10 mg/kg)): significant efficacy | efficacy in TEL-CSF1R-BaF3 cell splenomegaly assay ([3]; 10 mpk): significant advantage | dose-dependence in TEL-CSF1R-BaF3 cell splenomegaly assay ([3]; high, medium and low doses (10, 3, 1 mg/kg p.o. QD)): clear dose-dependence

SMILES: CNC(=O)c1nccc2c(-c3cnc(Nc4ccc(OC5CC5)nc4)cc3C)cn(C)c12 [Compound 2 hydrochloride]
IC50 (CSF-1R): 26.8 nM

SMILES: Cl.FC(F)(F)c1ccc(CNc2ccc(Cc3c[nH]c4ncc(Cl)cc34)cn2)cn1 [PLX-3397, Pexidartinib, reference compound]
IC50 (CYP1A2): 24 µM | IC50 (CYP2C9): 3.81 µM | IC50 (CYP2C19): 8.32 µM | IC50 (CYP2D6): 8.77 µM | IC50 (CYP3A4): > 35.6 µM | AUC(0-t) ([1]; 1 mg/kg, IV, 1 mpk): 29 µM·h | Vd ([1]; 1 mg/kg, IV, 1 mpk): 0.265 L/kg | clearance ([1]; 1 mg/kg, IV, 1 mpk): 0.927 mL/min/kg | half-life ([1]; 1 mg/kg, IV, 1 mpk): 200 min | AUC(0-t) ([1]; 10 mg/kg, PO, 10 mpk): 131 µM·h | Cmax ([1]; 10 mg/kg, PO, 10 mpk): 17.2 µM | Tmax ([1]; 10 mg/kg, PO, 10 mpk): 4 h | bioavailability ([1]; 10 mg/kg, PO, 10 mpk): 74.1% | AUC(0-t) ([2]; 1 mg/kg, IV, 1 mpk): 8.49 µM·h | Vd ([2]; 1 mg/kg, IV, 1 mpk): 0.613 L/kg | clearance ([2]; 1 mg/kg, IV, 1 mpk): 4.64 mL/min/kg | half-life ([2]; 1 mg/kg, IV, 1 mpk): 76.2 min | AUC(0-t) ([2]; 10 mg/kg, PO, 10 mpk): 70.2 µM·h | Cmax ([2]; 10 mg/kg, PO, 10 mpk): 10.7 µM | Tmax ([2]; 10 mg/kg, PO, 10 mpk): 1.5 h | bioavailability ([2]; 10 mg/kg, PO, 10 mpk): 81%
